Values joined by “and” are separate entries in the source; they are usually repeats but may differ in a detail not shown here. Identical values can stand only once.
Legend:
Format in all cases: cell-based
[1] = test system: Ps. aeruginosa ATCC#9027; assay: Synergy test: microtiter plate high resolution MIC assay, M9GY medium, 30° C.; conditions: for MIC of the microbicide acting alone (Ca or Cb; QA/QB): Ps. aeruginosa, single component
Text: (§1) One measure of synergism is the industrially accepted method described by Kull, F. C.; Eisman, P. C.; Sylwestrowicz, H. D. and Mayer, R. L., in Applied Microbiology 9:538-541 (1961), using the ratio determined by the formula: Qa/QA+Qb/QB=Synergy Index(“SI”) wherein: • QA=concentration of compound A (first component) in ppm, acting alone, which produced an end point (MIC of Compound A). • Qa=concentration of compound A in ppm, in the mixture, which produced an end point. • QB=concentration of compound B (second component) in ppm, acting alone, which produced an end point (MIC of Compound B). • Qb=concentration of compound B in ppm, in the mixture, which produced an end point.
(§2) When the sum of Qa/QA and Qb/QB is greater than one, antagonism is indicated. […] The lower the SI, the greater the synergy shown by that particular mixture. The minimum inhibitory concentration (MIC) of a microbicide is the lowest concentration tested under a specific set of conditions that prevents the growth of added microorganisms.
(§3) Synergy tests were conducted using standard microtiter plate assays with media designed for optimal growth of the test microorganism. Minimal salt medium supplemented with 0.2% glucose and 0.1% yeast extract (M9GY medium) was used for testing bacteria; Potato Dextrose Broth (PDB medium) was used for testing yeast and mold. In this method, a wide range of combinations of microbicides was tested by conducting high resolution MIC assays in the presence of various concentrations of MBIT. High resolution MICs were determined by adding varying amounts of microbicide to one column of a microtitre plate and doing subsequent […] dilutions using an automated liquid handling system to obtain a series of endpoints ranging from 2 ppm to 10,000 ppm active ingredient.
(§4) The synergy of the combinations of the present invention was determined against several microorganisms, as described in the Tables below. The bacteria were used at a concentration of about 5×10^6 bacteria per mL and the yeast and mold at 5×10^5 fungi per mL. These microorganisms are representative of natural contaminants in many consumer and industrial applications. […] (yeast and mold) or 30° C. (bacteria).
(§5) In each test, Second Component (B) was MBIT and the First Component (A) was the other commercial microbicide.

[2] = test system: S. aureus ATCC#6538; assay: as above; conditions: for Cb: ppm AI of MBIT alone (MIC end-point, QB): Table 6; for MIC of the microbicide acting alone (Ca or Cb; QA/QB): S. aureus, single component
Text: as §1, §2, §3, §4, §5

[3] = test system: A. niger ATCC # 16404; assay: Synergy test: microtiter plate high resolution MIC assay, PDB medium, 25° C.; conditions: for MIC of the microbicide acting alone (Ca or Cb; QA/QB): A. niger, single component
Text: as §1, §2, §3, §4, §5

[4] = test system: C. albicans ATCC # 10231; assay: as above; conditions: for MIC of the microbicide acting alone (Ca or Cb; QA/QB): C. albicans, single component
Text: as §1, §2, §3, §4, §5

[5] = contact time 24 hrs, MBIT alone (QB) or in mixture with ACQ C2 (Qb)
[6] = contact time 24 hrs, MBIT alone (QB) or in mixture with ACQ type D (Qb)
[7] = contact time 48 hrs, MBIT alone (QB) or in mixture with ACQ C2 (Qb)
[8] = contact time 48 hrs, MBIT alone (QB) or in mixture with ACQ type D (Qb)

Cn1sc2ccccc2c1=O [MBIT, N-methyl-1,2-benzisothiazolin-3-one]
Cb: ppm AI of MBIT alone (MIC end-point, QB) ([1]; Ps. aeruginosa ATCC#9027, contact time 24 hrs, alone, Table 6): 125 ppm
MIC of the microbicide acting alone (Ca or Cb; QA/QB) ([1]; contact time 24 hrs): 125 ppm AI
MIC of the microbicide acting alone (Ca or Cb; QA/QB) ([1]; contact time 48 hrs): 125 ppm AI
Cb: ppm AI of MBIT at MIC end point [1, 5]: 75 ppm
Cb: ppm AI of MBIT at MIC end point [1, 6]: 75 ppm
Cb: ppm AI of MBIT at MIC end point [1, 7]: 125 ppm
Cb: ppm AI of MBIT at MIC end point [1, 8]: 125 ppm
Cb: ppm AI of MBIT alone (MIC end-point, QB) ([2]; S. aureus ATCC#6538, contact time 24 hrs): 15 ppm
Cb: ppm AI of MBIT alone (MIC end-point, QB) ([2]; S. aureus ATCC#6538, contact time 48 hrs): 15 ppm
MIC of the microbicide acting alone (Ca or Cb; QA/QB) ([2]; contact time 24 hrs): 15 ppm AI
MIC of the microbicide acting alone (Ca or Cb; QA/QB) ([2]; contact time 48 hrs): 15 ppm AI
MIC of the microbicide acting alone (Ca or Cb; QA/QB) ([2]; second block of Table 4, contact time not given): 15 ppm AI
Cb: ppm AI of MBIT at MIC end point [2, 5]: 15 ppm
Cb: ppm AI of MBIT at MIC end point [2, 6]: 15 ppm
Cb: ppm AI of MBIT at MIC end point [2, 7]: 15 ppm
Cb: ppm AI of MBIT at MIC end point [2, 8]: 15 ppm
Cb: ppm AI of MBIT alone (MIC end-point, QB) ([3]; A. niger ATCC # 16404, contact time 3 days, Table 6): 37.5 ppm
Cb: ppm AI of MBIT alone (MIC end-point, QB) ([3]; A. niger ATCC # 16404, contact time 3 days, Table 7): 37.5 ppm
Cb: ppm AI of MBIT alone (MIC end-point, QB) ([3]; A. niger ATCC # 16404, contact time 3 days, Table 8): 37.5 ppm
Cb: ppm AI of MBIT alone (MIC end-point, QB) ([3]; A. niger ATCC # 16404, contact time 7 days, Table 6): 37.5 ppm
Cb: ppm AI of MBIT alone (MIC end-point, QB) ([3]; A. niger ATCC # 16404, contact time 7 days, Table 7): 75 ppm
Cb: ppm AI of MBIT alone (MIC end-point, QB) ([3]; A. niger ATCC # 16404, contact time 7 days, Table 8): 75 ppm
MIC of the microbicide acting alone (Ca or Cb; QA/QB) ([3]; contact time 3 days): 37.5 ppm AI
MIC of the microbicide acting alone (Ca or Cb; QA/QB) ([3]; contact time 7 days): 37.5 ppm AI and 75 ppm AI
Cb: ppm AI of MBIT at MIC end point ([3]; contact time 3 days, MBIT alone (QB) or in mixture with ACQ C2 (Qb)): 37.5 ppm
Cb: ppm AI of MBIT at MIC end point ([3]; contact time 3 days, MBIT alone (QB) or in mixture with ACQ type D (Qb)): 37.5 ppm
Cb: ppm AI of MBIT at MIC end point ([3]; contact time 7 days, MBIT alone (QB) or in mixture with ACQ C2 (Qb)): 37.5 ppm
Cb: ppm AI of MBIT at MIC end point ([3]; contact time 7 days, MBIT alone (QB) or in mixture with ACQ type D (Qb)): 75 ppm
Cb: ppm AI of MBIT alone (MIC end-point, QB) ([4]; C. albicans ATCC # 10231, contact time 48 hrs, Table 6): 30 ppm
Cb: ppm AI of MBIT alone (MIC end-point, QB) ([4]; C. albicans ATCC # 10231, contact time 48 hrs, Table 7): 30 ppm
Cb: ppm AI of MBIT alone (MIC end-point, QB) ([4]; C. albicans ATCC # 10231, contact time 48 hrs, Table 8): 30 ppm
Cb: ppm AI of MBIT alone (MIC end-point, QB) ([4]; C. albicans ATCC # 10231, contact time 72 hrs, Table 6): 30 ppm
Cb: ppm AI of MBIT alone (MIC end-point, QB) ([4]; C. albicans ATCC # 10231, contact time 72 hrs, Table 7): 30 ppm
Cb: ppm AI of MBIT alone (MIC end-point, QB) ([4]; C. albicans ATCC # 10231, contact time 72 hrs, Table 8): 30 ppm
MIC of the microbicide acting alone (Ca or Cb; QA/QB) ([4]; contact time 48 hrs): 30 ppm AI
MIC of the microbicide acting alone (Ca or Cb; QA/QB) ([4]; contact time 72 hrs): 30 ppm AI and 60 ppm AI
Cb: ppm AI of MBIT at MIC end point [4, 7]: 60 ppm
Cb: ppm AI of MBIT at MIC end point [4, 8]: 30 ppm
Cb: ppm AI of MBIT at MIC end point ([4]; contact time 72 hrs, MBIT alone (QB) or in mixture with ACQ C2 (Qb)): 60 ppm
Cb: ppm AI of MBIT at MIC end point ([4]; contact time 72 hrs, MBIT alone (QB) or in mixture with ACQ type D (Qb)): 60 ppm

cocamidopropyl-N-2-hydroxyethylcarbamoyl methyl dimethyl ammonium chloride [MONTALINE C40]
MIC of the microbicide acting alone (Ca or Cb; QA/QB) ([1]; contact time 24 hrs): 300 ppm AI
MIC of the microbicide acting alone (Ca or Cb; QA/QB) ([1]; contact time 48 hrs): 300 ppm AI
MIC of the microbicide acting alone (Ca or Cb; QA/QB) ([2]; contact time 24 hrs): 5 ppm AI
MIC of the microbicide acting alone (Ca or Cb; QA/QB) ([2]; contact time 48 hrs): 5 ppm AI
MIC of the microbicide acting alone (Ca or Cb; QA/QB) ([3]; contact time 3 days): 650 ppm AI
MIC of the microbicide acting alone (Ca or Cb; QA/QB) ([3]; contact time 7 days): 650 ppm AI
MIC of the microbicide acting alone (Ca or Cb; QA/QB) ([4]; contact time 48 hrs): 525 ppm AI
MIC of the microbicide acting alone (Ca or Cb; QA/QB) ([4]; contact time 72 hrs): 1100 ppm AI

CCCCCCCCCCCC(=O)N[C@@H](CCCN=C(N)N)C(=O)OCC.Cl [CYTO GUARD LA, ethyl lauroyl arginate hydrochloride]
MIC of the microbicide acting alone (Ca or Cb; QA/QB) ([1]; contact time 48 hrs): 42.5 ppm AI
MIC of the microbicide acting alone (Ca or Cb; QA/QB) ([2]; contact time 24 hrs): 2.125 ppm AI
MIC of the microbicide acting alone (Ca or Cb; QA/QB) ([2]; contact time 48 hrs): 2.625 ppm AI
MIC of the microbicide acting alone (Ca or Cb; QA/QB) ([3]; contact time 3 days): 110 ppm AI
MIC of the microbicide acting alone (Ca or Cb; QA/QB) ([3]; contact time 7 days): 110 ppm AI
MIC of the microbicide acting alone (Ca or Cb; QA/QB) ([4]; contact time 48 hrs): 87.5 ppm AI
MIC of the microbicide acting alone (Ca or Cb; QA/QB) ([4]; contact time 72 hrs): 87.5 ppm AI
